# Measurements as given in patent US5196327A, “Process for producing antifungal fermentation products and compositions thereof” (Merck & Co., Inc., priority 1991, dated 1993).
# Tests used:
# [1] = test system: Aspergillus fumigatus MF4839; test: Agar dilution assay, MIC; assay type: cell-based; details: strain MF4839, yeast nitrogen base dextrose agar
# Description: (§1) In separate operations, in vitro antifungal activity determinations were carried out with Compound IB and with Compound IC against a panel of filamentous and yeast-like fungi employing yeast nitrogen base dextrose agar medium. In carrying out the assay, the compound to be tested was solubilized in 10 percent dimethyl sulfoxide (DMSO) supplemented with one drop of Tween 20. Two-fold dilutions were made with sterile distilled water/10% DMSO to obtain final concentrations in the agar dilution assay plates ranging from 64 to 0.06 μg/ml in the operation with Compound IB and from 128 to 0.06 μg/ml in the operation with Compound IC.
# (§2) Nystatin (commercially available antifungal agent) was used as a positive antifungal control.
# Ca. guilliermondi MY1019 = test: Agar dilution assay, MIC; assay type: cell-based; details: strain MY1019, yeast nitrogen base dextrose agar
# Description: as §1, §2
# Ca. krusei MY1020 = test: Agar dilution assay, MIC; assay type: cell-based; details: strain MY1020, yeast nitrogen base dextrose agar
# Description: as §1, §2
# Ca. parapsilosis MY1009 = test: Agar dilution assay, MIC; assay type: cell-based; details: strain MY1009, yeast nitrogen base dextrose agar
# Description: as §1, §2
# Ca. parapsilosis MY1010 = test: Agar dilution assay, MIC; assay type: cell-based; details: strain MY1010, yeast nitrogen base dextrose agar
# Description: as §1, §2
# Ca. stellatoidea MY1017 = test: Agar dilution assay, MIC; assay type: cell-based; details: strain MY1017, yeast nitrogen base dextrose agar
# Description: as §1, §2
# Candida albicans MY1058 = test: Agar dilution assay, MIC; assay type: cell-based; details: strain MY1058, yeast nitrogen base dextrose agar
# Description: as §1, §2
# [2] = test system: Cryptococcus neoformans MY1051; test: Agar dilution assay, MIC; assay type: cell-based; details: strain MY1051, yeast nitrogen base dextrose agar
# Description: as §1, §2
# [3] = test system: Penicillium italicum MF2819; test: Agar dilution assay, MIC; assay type: cell-based; details: strain MF2819, yeast nitrogen base dextrose agar
# Description: as §1, §2
# [4] = test system: Torulopsis glabrata MY1059; test: Agar dilution assay, MIC; assay type: cell-based; details: strain MY1059, yeast nitrogen base dextrose agar
# Description: as §1, §2
# Cr. neoformans MY1146 = test: Agar dilution assay, MIC; assay type: cell-based, Cryptococcus neoformans; details: strain MY1146, yeast nitrogen base dextrose agar
# Description: as §1, §2
# Ca. albicans MY0992 = test: Agar dilution assay, MIC; assay type: cell-based, Candida albicans; details: strain MY0992, yeast nitrogen base dextrose agar
# Description: as §1, §2
# Ca. albicans MY1013 = test: Agar dilution assay, MIC; assay type: cell-based, Candida albicans; details: strain MY1013, yeast nitrogen base dextrose agar
# Description: as §1, §2
# Ca. albicans MY1029 = test: Agar dilution assay, MIC; assay type: cell-based, Candida albicans; details: strain MY1029, yeast nitrogen base dextrose agar
# Description: as §1, §2
# Ca. albicans MY1055 = test: Agar dilution assay, MIC; assay type: cell-based, Candida albicans; details: strain MY1055, yeast nitrogen base dextrose agar
# Description: as §1, §2
# Ca. tropicalis MY1011 = test: Agar dilution assay, MIC; assay type: cell-based, Candida tropicalis; details: strain MY1011, yeast nitrogen base dextrose agar
# Description: as §1, §2
# Ca. tropicalis MY1012 = test: Agar dilution assay, MIC; assay type: cell-based, Candida tropicalis; details: strain MY1012, yeast nitrogen base dextrose agar
# Description: as §1, §2
# [5] = test system: Ca. pseudotropicalis MY1040; test: Agar dilution assay, MIC; assay type: cell-based, Candida pseudotropicalis; details: strain MY1040, yeast nitrogen base dextrose agar
# Description: as §1, §2
# Ca. rugosa MY1022 = test: Agar dilution assay, MIC; assay type: cell-based, Candida rugosa; details: strain MY1022, yeast nitrogen base dextrose agar
# Description: as §1, §2
# Sac. cerevisiae MY1027 = test: Agar dilution assay, MIC; assay type: cell-based, Saccharomyces cerevisiae; details: strain MY1027, yeast nitrogen base dextrose agar
# Description: as §1, §2
# A. flavus MF0383 = test: Agar dilution assay, MIC; assay type: cell-based, Aspergillus flavus; details: strain MF0383, yeast nitrogen base dextrose agar
# Description: as §1, §2
# [6] = test system: panel of representative yeasts, filamentous fungi (molds) and bacteria; test: Antifungal disc diffusion assay, panel; assay type: cell-based; details: panel of organisms
# Description: The antifungal activity of the compounds may be detected in an antifungal assay employing disc diffusion methods against a panel of representative yeasts, filamentous fungi (molds) and bacteria.
# The filamentous fungi used in the assay are Cochliobolus miyabeanus, Penicillium sp. (three strains), Aspergillus niger, Trichoderma sp., Phoma sp., Trichoderma lignorum, Fusarium oxysporum, Ustilago maydis, Ceratocystis ulmi, Alternaria solani, Verticillium serrae, Botrytis allii, Scopulariopsis communis, Cephalosporium sp., Cercospora beticola, […], Rhizomucor miehei, Aspergillus flavus and Aspergillus fumigatus.
# The yeasts employed in the assay are Saccharomyces cerevisiae, Candida albicans, […], Candida tropicalis, Candida rugosa, Brettanomyces bruxellensis, Torulospora hansenii, Candida quilliermondi, Candida pseudotropicalis, Torulopsis glabrata, Cryptococcus albidus, and Cryptococcus laurentii.
# The bacteria employed in the assay are Streptomyces sp., Acholeplasma laidlawii and Bacillus subtilis.
# For carrying out the assay, seeded assay plates are prepared in the following manner according to the type of assay strain.
# Inocula for filamentous fungi are prepared by scraping the surface of stock plates maintained on potato dextrose agar with a moistened sterile dacron swab. The spores and mycelia are then suspended in 10 milliliters of sterile potato dextrose broth and adjusted to 70 percent transmission at 660 nm.
# Inocula for yeasts and bacterial strains are prepared from overnight broth cultures then diluted into potato dextrose agar to a final concentration of either 40 percent or 70 percent transmission at 660 nm.
# When the organism is Acholephasma laidlawii, it is suspended in brain heart infusion broth supplemented with 2.5 percent yeast extract and 20 percent heat inactivated horse serum, and the broth adjusted to a final concentration of 60 percent transmission at 660 nm. […]
# Following incubation, the inhibition zones are measured and recorded. […]
# [7] = read-out: Minimum Inhibitory Concentration
compound,measurement,setting,value
"C[C@@H]1[C@H](O)[C@@H](C)/C=C/C=C/CC/C=C/C=C/C=C/C=C/C(O[C@H]2O[C@H](C)[C@@H](O)[C@H](N)[C@@H]2O)CC2O[C@](O)(CC(O)C(O)CCC(O)CC(O)CC(O)CC(=O)O[C@H]1C)CC(O)C2C(=O)O (stereo partly shown) [Nystatin, reference compound]",Minimum Inhibitory Concentration,[1],2 µg/mL
same,Minimum Inhibitory Concentration,Ca. guilliermondi MY1019,2 µg/mL
same,Minimum Inhibitory Concentration,Ca. krusei MY1020,2 µg/mL
same,Minimum Inhibitory Concentration,Ca. parapsilosis MY1009,4 µg/mL
same,Minimum Inhibitory Concentration,Ca. parapsilosis MY1010,2 µg/mL
same,Minimum Inhibitory Concentration,Ca. stellatoidea MY1017,2 µg/mL
same,Minimum Inhibitory Concentration,Candida albicans MY1058,2 µg/mL
same,Minimum Inhibitory Concentration,[2],2 µg/mL
same,Minimum Inhibitory Concentration,[3],2 µg/mL
same,Minimum Inhibitory Concentration,[4],1 µg/mL
same,Minimum Inhibitory Concentration,Cr. neoformans MY1146,2 µg/mL
same,Minimum Inhibitory Concentration,Ca. albicans MY0992,2 µg/mL
same,Minimum Inhibitory Concentration,Ca. albicans MY1013,2 µg/mL
same,Minimum Inhibitory Concentration,Ca. albicans MY1029,2 µg/mL
same,Minimum Inhibitory Concentration,Ca. albicans MY1055,2 µg/mL
same,Minimum Inhibitory Concentration,Ca. tropicalis MY1011,2 µg/mL
same,Minimum Inhibitory Concentration,Ca. tropicalis MY1012,> 128 µg/mL
same,Minimum Inhibitory Concentration,[5],1 µg/mL
same,Minimum Inhibitory Concentration,Ca. rugosa MY1022,4 µg/mL
same,Minimum Inhibitory Concentration,Sac. cerevisiae MY1027,1 µg/mL
same,Minimum Inhibitory Concentration,A. flavus MF0383,2 µg/mL
"CCCCCCC(O)CCCCCCC=CC(O)C(O)C(O)C(N)C(=O)O (stereo not shown) [Compound IB, 2-amino-3,4,5,14-tetrahydroxy-6-eicosengoic acid]",MIC,[1]; [7],64 mg/L
same,MIC,Ca. guilliermondi MY1019; [7],> 64 mg/L
same,MIC,Ca. krusei MY1020; [7],> 64 mg/L
same,MIC,Ca. parapsilosis MY1009; [7],32 mg/L
same,MIC,Ca. parapsilosis MY1010; [7],2 mg/L
same,MIC,Ca. stellatoidea MY1017; [7],16 mg/L
same,MIC,Candida albicans MY1058; [7],16 mg/L
same,MIC,[2]; [7],2 mg/L
same,MIC,[3]; [7],> 64 mg/L
same,MIC,[4]; [7],16 mg/L
same,MIC,Cr. neoformans MY1146; [7],2 mg/L
same,MIC,Ca. albicans MY0992; [7],32 mg/L
same,MIC,Ca. albicans MY1013; [7],32 mg/L
same,MIC,Ca. albicans MY1029; [7],64 mg/L
same,MIC,Ca. albicans MY1055; [7],32 mg/L
same,MIC,Ca. tropicalis MY1011; [7],16 mg/L
same,MIC,Ca. tropicalis MY1012; [7],2 mg/L
same,MIC,[5]; [7],0.5 mg/L
same,MIC,Ca. rugosa MY1022; [7],> 64 mg/L
same,MIC,"Sac. cerevisiae MY1027; Saccharomyces cerevisiae, read-out: Minimum Inhibitory Concentration",16 mg/L
same,MIC,A. flavus MF0383; [7],64 mg/L
same,antifungal activity,[6],consistently active against most of the 41 of the filamentous fungi and yeasts
